Experimental data reported in patent publication US20070140959A1, “Method of preparing rhenium-tricarbonyl complex and its precursor” (priority 2005, published 2007).

How the values were obtained:
[1] = Stability of 188Re(I)-tricarbonyl precursor over time (HPLC); assay type: physicochemical; details: for 3 hours, then began to decay
Description: The HPLC measurement was conducted in order to separate the ^188Re (I)-tricarbonyl precursor synthesized in Embodiment 1.
The HPLC measurement was carried out with a WATERS system provided with a radiometric detector using methanol (hereinafter, referred to as ‘solvent A’) and 0.05 M triethylammoniumphosphate buffer (TEAP, pH 2.25, hereinafter referred to as ‘solvent B’) using two pumps each equipped with a reverse phase Xterra™ RP18 5 μm column (4.6×250 mm, Waters, Ireland).
The solvent conditions for HPLC were as follows: in the range of 0 to 5 minutes, 100% solvent A began to flow and was then converted into 100% solvent B; in the range of 5 to 8 minutes, 100% solvent B began to flow and was then converted into 25% solvent A and 75% solvent B; in the range of 8 to 11 minutes, 25% solvent A and 75% solvent B were converted into 34% solvent A and 66% solvent B; in the range of 11 to 22 minutes, 34% solvent A and 66% solvent B were converted into 100% solvent A; and in the range of 22 to 24 minutes, 100% solvent A was converted into 100% solvent B. The flow rate of solvent was maintained at 1 ml/min for the entire time. In addition, in order to rapidly bring the column to a state of equilibrium, during the next 5 min, the solvent was supplied at 2 ml/min for 2 minnutes and then at the former solvent flow rate for 3 min. […]

[2] = assay type: in vitro ADME, human
Description: The ^188Re-tricarbonyl histidine complex prepared in Embodiment 2 was dissolved in physiological saline to prepare 37 MBq/ml of a test solution. Of this solution, 25 μl of the solution was added to 475 μl of human plasma (sigma) and then cultured at 37° C. for 24 hours. After the lapse of 0.5, 1, 2, 4 and 24 hours, the fraction of solution was subjected to TLC measurement. As a development solvent, a solvent mixture comprising methanol and conc. hydrochloric acid mixed at a 99:1 ratio was used.
When the fraction of solution was developed, the labeled complex was shown in the developed portion, and the complex reacted with the plasma protein was shown in the zero point, which were confirmed through HPLC. The HPLC measurement was conducted in the same manner as in Experimental Example 2. In addition, the plasma protein binding was measured using an ITLC isotope scanner.

plasma stability (in words) [2]	Substance	fraction of precursor stable [1]
–	^188Re-tricarbonyl precursor [^188Re (I)-tricarbonyl precursor]	≥ 95%
high plasma stability	^188Re (I)-tricarbonyl histidine complex [^188Re-tricarbonyl histidine complex]	–
